Laboratory results as given in patent US8562949B2, “Radiolabeled dihydrotetrabenazine derivatives and their use as imaging agents” (The Trustees of the University of Pennsylvania, priority 2006, dated 2013).

Test: Biodistribution of [18F]FP-6b in normal mice (Table 4)
Type: in vivo, ICR mice
Details: iv
Description: After anesthetizing ICR mice (22-25 g male) with isoflurane, 0.15 mL of a 0.1% bovine serum albumin solution containing [^18F]FP-(+)-6b (10-20 μCi) was injected directly into the tail vein. The mice (n=3 for each time point) were sacrificed by cervical dislocation (under isoflurane anesthesia) at indicated time-points post-injection. The organs of interest were removed and weighed, and the radioactivity was counted with an automatic gamma counter. The percentage dose per organ was calculated by a comparison of the tissue counts to suitably diluted aliquots of the injected material. The total activity of the blood was calculated under the assumption that it was 7% of the total body weight. The % does/g of samples was calculated by comparing the sample counts with the count of the diluted initial dose.

Organ distribution Blood (2 min): 2.12 ± 0.17 % dose/g
Organ distribution Bone (2 min): 1.95 ± 0.30 % dose/g
Organ distribution Brain (2 min): 4.82 ± 0.86 % dose/g
Organ distribution Heart (2 min): 5.47 ± 1.19 % dose/g
Organ distribution Kidney (2 min): 10.7 ± 2.02 % dose/g
Organ distribution Liver (2 min): 24.6 ± 1.37 % dose/g
Organ distribution Lung (2 min): 9.04 ± 4.71 % dose/g
Organ distribution Muscle (2 min): 0.78 ± 0.11 % dose/g
Organ distribution Skin (2 min): 1.05 ± 0.12 % dose/g
Organ distribution Spleen (2 min): 7.38 ± 1.62 % dose/g
Ratio (vs CB) Cortex (2 min): 0.97
Ratio (vs CB) Hippocampus (2 min): 0.97
Ratio (vs CB) Hypothalamus (2 min): 1.37
Ratio (vs CB) Remainder (2 min): 1.01
Ratio (vs CB) Striatum (2 min): 1.56
Regional brain distribution Cerebellum (CB) (2 min): 4.67 ± 0.74 % dose/g
Regional brain distribution Cortex (2 min): 4.54 ± 0.66 % dose/g
Regional brain distribution Hippocampus (2 min): 4.54 ± 0.72 % dose/g
Regional brain distribution Hypothalamus (2 min): 6.41 ± 1.11 % dose/g
Regional brain distribution Remainder (2 min): 4.71 ± 0.74 % dose/g
Regional brain distribution Striatum (2 min): 7.28 ± 0.80 % dose/g
Organ distribution Blood (30 min): 1.73 ± 0.15 % dose/g
Organ distribution Bone (30 min): 4.88 ± 1.43 % dose/g
Organ distribution Brain (30 min): 2.05 ± 0.37 % dose/g
Organ distribution Heart (30 min): 2.43 ± 0.22 % dose/g
Organ distribution Kidney (30 min): 5.81 ± 1.15 % dose/g
Organ distribution Liver (30 min): 22.2 ± 1.98 % dose/g
Organ distribution Lung (30 min): 3.17 ± 0.33 % dose/g
Organ distribution Muscle (30 min): 1.10 ± 0.12 % dose/g
Organ distribution Skin (30 min): 1.42 ± 0.03 % dose/g
Organ distribution Spleen (30 min): 3.69 ± 0.25 % dose/g
Ratio (vs CB) Cortex (30 min): 1.34
Ratio (vs CB) Hippocampus (30 min): 1.59
Ratio (vs CB) Hypothalamus (30 min): 3.52
Ratio (vs CB) Remainder (30 min): 1.45
Ratio (vs CB) Striatum (30 min): 4.51
Regional brain distribution Cerebellum (CB) (30 min): 1.41 ± 0.23 % dose/g
Regional brain distribution Cortex (30 min): 1.88 ± 0.63 % dose/g
Regional brain distribution Hippocampus (30 min): 2.23 ± 0.59 % dose/g
Regional brain distribution Hypothalamus (30 min): 4.95 ± 0.84 % dose/g
Regional brain distribution Remainder (30 min): 2.04 ± 0.28 % dose/g
Regional brain distribution Striatum (30 min): 6.34 ± 1.01 % dose/g
Organ distribution Blood (60 min): 0.97 ± 0.04 % dose/g
Organ distribution Bone (60 min): 9.22 ± 0.48 % dose/g
Organ distribution Brain (60 min): 1.10 ± 0.32 % dose/g
Organ distribution Heart (60 min): 1.67 ± 0.02 % dose/g
Organ distribution Kidney (60 min): 3.48 ± 0.34 % dose/g
Organ distribution Liver (60 min): 14.5 ± 0.91 % dose/g
Organ distribution Lung (60 min): 2.00 ± 0.05 % dose/g
Organ distribution Muscle (60 min): 0.73 ± 0.04 % dose/g
Organ distribution Skin (60 min): 1.06 ± 0.04 % dose/g
Organ distribution Spleen (60 min): 2.11 ± 0.05 % dose/g
Ratio (vs CB) Cortex (60 min): 1.00
Ratio (vs CB) Hippocampus (60 min): 1.32
Ratio (vs CB) Hypothalamus (60 min): 2.71
Ratio (vs CB) Remainder (60 min): 1.45
Ratio (vs CB) Striatum (60 min): 4.74
Regional brain distribution Cerebellum (CB) (60 min): 0.89 ± 0.01 % dose/g
Regional brain distribution Cortex (60 min): 0.89 ± 0.11 % dose/g
Regional brain distribution Hippocampus (60 min): 1.18 ± 0.12 % dose/g
Regional brain distribution Hypothalamus (60 min): 2.42 ± 0.52 % dose/g
Regional brain distribution Remainder (60 min): 1.30 ± 0.08 % dose/g
Regional brain distribution Striatum (60 min): 4.24 ± 0.78 % dose/g
Organ distribution Blood (2 hr): 0.57 ± 0.09 % dose/g
Organ distribution Bone (2 hr): 12.7 ± 1.84 % dose/g
Organ distribution Brain (2 hr): 0.68 ± 0.11 % dose/g
Organ distribution Heart (2 hr): 0.91 ± 0.14 % dose/g
Organ distribution Kidney (2 hr): 2.28 ± 0.34 % dose/g
Organ distribution Liver (2 hr): 9.81 ± 0.94 % dose/g
Organ distribution Lung (2 hr): 1.26 ± 0.13 % dose/g
Organ distribution Muscle (2 hr): 0.53 ± 0.05 % dose/g
Organ distribution Skin (2 hr): 0.67 ± 0.06 % dose/g
Organ distribution Spleen (2 hr): 1.40 ± 0.35 % dose/g
Ratio (vs CB) Cortex (2 hr): 0.96
Ratio (vs CB) Hippocampus (2 hr): 1.09
Ratio (vs CB) Hypothalamus (2 hr): 1.90
Ratio (vs CB) Remainder (2 hr): 1.15
Ratio (vs CB) Striatum (2 hr): 3.28
Regional brain distribution Cerebellum (CB) (2 hr): 0.54 ± 0.09 % dose/g
Regional brain distribution Cortex (2 hr): 0.51 ± 0.02 % dose/g
Regional brain distribution Hippocampus (2 hr): 0.58 ± 0.15 % dose/g
Regional brain distribution Hypothalamus (2 hr): 1.02 ± 0.11 % dose/g
Regional brain distribution Remainder (2 hr): 0.62 ± 0.10 % dose/g
Regional brain distribution Striatum (2 hr): 1.76 ± 0.33 % dose/g
Organ distribution Blood (4 hr): 0.06 ± 0.02 % dose/g
Organ distribution Bone (4 hr): 3.49 ± 0.35 % dose/g
Organ distribution Brain (4 hr): 0.16 ± 0.03 % dose/g
Organ distribution Heart (4 hr): 0.12 ± 0.01 % dose/g
Organ distribution Kidney (4 hr): 0.31 ± 0.02 % dose/g
Organ distribution Liver (4 hr): 1.58 ± 0.08 % dose/g
Organ distribution Lung (4 hr): 0.19 ± 0.01 % dose/g
Organ distribution Muscle (4 hr): 0.06 ± 0.01 % dose/g
Organ distribution Skin (4 hr): 0.09 ± 0.01 % dose/g
Organ distribution Spleen (4 hr): 0.17 ± 0.02 % dose/g
Ratio (vs CB) Cortex (4 hr): 0.87
Ratio (vs CB) Hippocampus (4 hr): 0.99
Ratio (vs CB) Hypothalamus (4 hr): 1.15
Ratio (vs CB) Remainder (4 hr): 1.02
Ratio (vs CB) Striatum (4 hr): 1.11
Regional brain distribution Cerebellum (CB) (4 hr): 0.41 ± 0.02 % dose/g
Regional brain distribution Cortex (4 hr): 0.36 ± 0.02 % dose/g
Regional brain distribution Hippocampus (4 hr): 0.41 ± 0.01 % dose/g
Regional brain distribution Hypothalamus (4 hr): 0.47 ± 0.01 % dose/g
Regional brain distribution Remainder (4 hr): 0.42 ± 0.05 % dose/g
Regional brain distribution Striatum (4 hr): 0.46 ± 0.13 % dose/g
SMILES: COc1cc2c(cc1OCCC[18F])CCN1C[C@@H](CC(C)C)[C@H](O)C[C@H]21 [[^18F]-(+)-6b]
